Active and inactive are the calls of the source.
Experiments:
HepG2 = assay: Cytotoxicity against human HepG2 cells assessed as reduction in cell viability incubated for 24 hrs by colorimetric tetrazolium assay; type: functional, cell-based; conditions: HepG2, 24 h
[1] = Hemolytic activity in human erythrocytes incubated for 1 hr by microplate reader; type: functional, cell-based; conditions: erythrocyte
Pseudomonas aeruginosa [2] = assay: Antimicrobial activity against Pseudomonas aeruginosa PAO1 assessed as reduction in bacterial growth incubated for 48 hrs by microdilution susceptibility test; type: functional
Escherichia coli [3] = assay: Antimicrobial activity against Escherichia coli ATCC 25922 assessed as reduction in bacterial growth incubated for 48 hrs by microdilution susceptibility test; type: functional
[4] = system: Corynebacterium glutamicum; assay: Antimicrobial activity against Corynebacterium glutamicum ATCC 13032 assessed as reduction in bacterial growth incubated for 48 hrs by microdilution susceptibility test; type: functional
Staphylococcus aureus [5] = assay: Antimicrobial activity against Staphylococcus aureus ATCC 9144 assessed as reduction in bacterial growth incubated for 48 hrs by microdilution susceptibility test; type: functional
MRC5 = assay: Cytotoxicity against human MRC5 cells assessed as reduction in cell viability incubated for 24 hrs by colorimetric tetrazolium assay; type: functional, cell-based; conditions: MRC5, 24 h
Staphylococcus aureus [6] = assay: Antimicrobial activity against extended spectrum-lactamase-carbapenemas producing Staphylococcus aureus N315 assessed as reduction in bacterial growth incubated for 48 hrs by microdilution method; type: functional
Staphylococcus aureus [7] = assay: Antimicrobial activity against extended spectrum-lactamase-carbapenemas producing Staphylococcus aureus NCTC 10442 assessed as reduction in bacterial growth incubated for 48 hrs by microdilution method; type: functional
Staphylococcus aureus [8] = assay: Antimicrobial activity against extended spectrum-lactamase-carbapenemas producing Staphylococcus aureus strain 85/2082 assessed as reduction in bacterial growth incubated for 48 hrs by microdilution method; type: functional
Staphylococcus aureus [9] = assay: Antimicrobial activity against extended spectrum-lactamase-carbapenemas producing Staphylococcus aureus strain WIS assessed as reduction in bacterial growth incubated for 48 hrs by microdilution method; type: functional
Staphylococcus aureus [10] = assay: Antimicrobial activity against extended spectrum-lactamase-carbapenemas producing Staphylococcus aureus strain IHT 99040 assessed as reduction in bacterial growth incubated for 48 hrs by microdilution method; type: functional
Enterococcus faecium [11] = assay: Antimicrobial activity against extended spectrum-lactamase-carbapenemas producing Enterococcus faecium strain 50673722 assessed as reduction in bacterial growth incubated for 48 hrs by microdilution method; type: functional
Enterococcus faecium [12] = assay: Antimicrobial activity against extended spectrum-lactamase-carbapenemas producing Enterococcus faecium strain 50901530 assessed as reduction in bacterial growth incubated for 48 hrs by microdilution method; type: functional
Enterococcus faecium [13] = assay: Antimicrobial activity against extended spectrum-lactamase-carbapenemas producing Enterococcus faecium strain K36-18 assessed as reduction in bacterial growth incubated for 48 hrs by microdilution method; type: functional
Enterococcus faecium [14] = assay: Antimicrobial activity against extended spectrum-lactamase-carbapenemas producing Enterococcus faecium strain 50758899 assessed as reduction in bacterial growth incubated for 48 hrs by microdilution method; type: functional
Enterococcus faecium [15] = assay: Antimicrobial activity against extended spectrum-lactamase-carbapenemas producing Enterococcus faecium strain TUH.50-22 assessed as reduction in bacterial growth incubated for 48 hrs by microdilution method; type: functional
Escherichia coli [16] = assay: Antimicrobial activity against oxacillinase-producing Escherichia coli 50579417 assessed as reduction in bacterial growth incubated for 48 hrs by microdilution method; type: functional
Escherichia coli [17] = assay: Antimicrobial activity against verona integron-encoded metallo-beta-lactamase-29-producing Escherichia coli 50639799 assessed as reduction in bacterial growth incubated for 48 hrs by microdilution method; type: functional
Escherichia coli [18] = assay: Antimicrobial activity against New Delhi metallo-beta lactamase-1 producing Escherichia coli 50676002 assessed as reduction in bacterial growth incubated for 48 hrs by microdilution method; type: functional
Escherichia coli [19] = assay: Antimicrobial activity against New Delhi metallo-beta lactamase-1 producing Escherichia coli 50739822 assessed as reduction in bacterial growth incubated for 48 hrs by microdilution method; type: functional
Escherichia coli [20] = assay: Antimicrobial activity against imipenem-type carbapenemase-26 producing Escherichia coli 50857972 assessed as reduction in bacterial growth incubated for 48 hrs by microdilution method; type: functional
Pseudomonas aeruginosa [21] = assay: Antimicrobial activity against verona integron-encoded metallo-beta-lactamase-2 producing Pseudomonas aeruginosa K34-7 assessed as reduction in bacterial growth incubated for 48 hrs by microdilution method; type: functional
Pseudomonas aeruginosa [22] = assay: Antimicrobial activity against verona integron-encoded metallo-beta-lactamase-4 producing Pseudomonas aeruginosa K34-73 assessed as reduction in bacterial growth incubated for 48 hrs by microdilution method; type: functional
Pseudomonas aeruginosa [23] = assay: Antimicrobial activity against imipenem-type carbapenemase-14 producing Pseudomonas aeruginosa K44-24 assessed as reduction in bacterial growth incubated for 48 hrs by microdilution method; type: functional
Pseudomonas aeruginosa [24] = assay: Antimicrobial activity against New Delhi metallo-beta lactamase-1 producing Pseudomonas aeruginosa 50692172 assessed as reduction in bacterial growth incubated for 48 hrs by microdilution method; type: functional
Pseudomonas aeruginosa [25] = assay: Antimicrobial activity against verona integron-encoded metallo-beta-lactamase producing Pseudomonas aeruginosa 50692520 assessed as reduction in bacterial growth incubated for 48 hrs by microdilution method; type: functional
[26] = Antimicrobial activity against carbapenemase producing Klebsiella pneumoniae K47-25 assessed as reduction in bacterial growth incubated for 48 hrs by microdilution method; type: functional
[27] = Antimicrobial activity against New Delhi metallo-beta lactamase-1 Klebsiella pneumoniae K66-45 assessed as reduction in bacterial growth incubated for 48 hrs by microdilution method; type: functional
[28] = Antimicrobial activity against New Delhi metallo-beta lactamase-1 and oxacillinase -181 producing Klebsiella pneumoniae 50531633 assessed as reduction in bacterial growth incubated for 48 hrs by microdilution method; type: functional
[29] = Antimicrobial activity against oxacillinase-245 producing Klebsiella pneumoniae 50625602 assessed as reduction in bacterial growth incubated for 48 hrs by microdilution method; type: functional
[30] = Antimicrobial activity against verona integron-encoded metallo-beta-lactamase -1 producing Klebsiella pneumoniae 50667959 assessed as reduction in bacterial growth incubated for 48 hrs by microdilution method; type: functional
Acinetobacter baumannii [31] = assay: Antimicrobial activity against oxacillinase-58 producing Acinetobacter baumannii K12-21 assessed as reduction in bacterial growth incubated for 48 hrs by microdilution method; type: functional
Acinetobacter baumannii [32] = assay: Antimicrobial activity against oxacillinase-23 producing Acinetobacter baumannii K44-35 assessed as reduction in bacterial growth incubated for 48 hrs by microdilution method; type: functional
Acinetobacter baumannii [33] = assay: Antimicrobial activity against oxacillinase-23 producing Acinetobacter baumannii K47-42 assessed as reduction in bacterial growth incubated for 48 hrs by microdilution method; type: functional
Acinetobacter baumannii [34] = assay: Antimicrobial activity against oxacillinase-24 producing Acinetobacter baumannii K55-13 assessed as reduction in bacterial growth incubated for 48 hrs by microdilution method; type: functional
Acinetobacter baumannii [35] = assay: Antimicrobial activity against oxacillinase-23 producing Acinetobacter baumannii K63-58 assessed as reduction in bacterial growth incubated for 48 hrs by microdilution method; type: functional
Streptococcus pneumoniae [36] = assay: Antibacterial activity against in […] 168 assessed as decrease in bacterial viability at 6.3 ug/ml by cell viability assay; type: functional, organism-based; conditions: dose 6.3 µg/ml
Escherichia coli [37] = assay: Membrano-lytic effect in Escherichia coli HB101 assessed as decrease in bacterial viability at 6.3 ug/ml by luciferase based real-time membrane integrity assay; type: functional, organism-based; conditions: dose 6.3 µg/ml
Escherichia coli [38] = assay: Antibacterial activity against Escherichia coli HB101 assessed as decrease in bacterial viability at 6.3 ug/ml by cell viability assay; type: functional, organism-based; conditions: dose 6.3 µg/ml
Escherichia coli [39] = assay: Antibacterial activity against in Escherichia coli HB101 assessed as decrease in bacterial viability at 3.1 ug/ml by cell viability assay; type: functional, organism-based; conditions: dose 3.1 µg/ml
Streptococcus pneumoniae [40] = assay: Antibacterial activity against in […] 168 assessed as decrease in bacterial viability at 3.1 ug/ml by cell viability assay; type: functional, organism-based; conditions: dose 3.1 µg/ml
Escherichia coli [41] = assay: Membrano-lytic effect in Escherichia coli HB101 assessed as decrease in bacterial viability at 3.1 ug/ml by luciferase based real-time membrane integrity assay; type: functional, organism-based; conditions: dose 3.1 µg/ml

NCCCCN1C(=O)N(CCCCN)C(=O)C(Cc2cc(Br)cc(Br)c2)(Cc2cc(Br)cc(Br)c2)C1=O.O=C(O)C(F)(F)F.O=C(O)C(F)(F)F
8 µg/mL: MIC (Pseudomonas aeruginosa [2]) | MIC (Enterococcus faecium [13]) | MIC (Escherichia coli [16]) | MIC (Escherichia coli [17]) | MIC (Escherichia coli [18]) | MIC (Escherichia coli [19]) | MIC (Escherichia coli [20]) | MIC [28]
79 µg/mL: EC50 [1]
16 µg/mL: MIC (Pseudomonas aeruginosa [21]) | MIC (Pseudomonas aeruginosa [22]) | MIC (Pseudomonas aeruginosa [23]) | MIC (Pseudomonas aeruginosa [24]) | MIC (Pseudomonas aeruginosa [25]) | MIC [26] | MIC [27] | MIC [29] | MIC [30] | MIC (Acinetobacter baumannii [31]) | MIC (Acinetobacter baumannii [32]) | MIC (Acinetobacter baumannii [33]) | MIC (Acinetobacter baumannii [34]) | MIC (Acinetobacter baumannii [35])
2 µg/mL: IC50 (MRC5)
1 µg/mL: MIC [4]
4 µg/mL: IC50 (HepG2) | MIC (Escherichia coli [3]) | MIC (Staphylococcus aureus [5]) | MIC (Staphylococcus aureus [6]) | MIC (Staphylococcus aureus [7]) | MIC (Staphylococcus aureus [8]) | MIC (Staphylococcus aureus [9]) | MIC (Staphylococcus aureus [10]) | MIC (Enterococcus faecium [11]) | MIC (Enterococcus faecium [12]) | MIC (Enterococcus faecium [14]) | MIC (Enterococcus faecium [15])
active: Activity (Streptococcus pneumoniae [36]) | Activity (Escherichia coli [37]) | Activity (Escherichia coli [38]) | Activity (Escherichia coli [39]) | Activity (Streptococcus pneumoniae [40]) | Activity (Escherichia coli [41])

N=C(N)NCCCCN1C(=O)N(CCCCNC(=N)N)C(=O)C(Cc2ccc(F)c3ccccc23)(Cc2ccc(F)c3ccccc23)C1=O.O=C(O)C(F)(F)F.O=C(O)C(F)(F)F
4 µg/mL: MIC (Pseudomonas aeruginosa [2]) | MIC (Enterococcus faecium [11]) | MIC (Enterococcus faecium [12]) | MIC (Enterococcus faecium [13]) | MIC (Enterococcus faecium [14]) | MIC (Enterococcus faecium [15]) | MIC (Escherichia coli [17]) | MIC (Escherichia coli [18]) | MIC (Escherichia coli [20]) | MIC [27] | MIC [30]
56 µg/mL: IC50 (HepG2)
0.25 µg/mL: MIC [4]
16 µg/mL: MIC (Pseudomonas aeruginosa [21]) | MIC (Pseudomonas aeruginosa [23]) | MIC (Pseudomonas aeruginosa [24]) | MIC (Pseudomonas aeruginosa [25]) | MIC [29]
23 µg/mL: IC50 (MRC5)
1 µg/mL: MIC (Escherichia coli [3]) | MIC (Staphylococcus aureus [5])
8 µg/mL: MIC (Escherichia coli [16]) | MIC (Escherichia coli [19]) | MIC (Pseudomonas aeruginosa [22]) | MIC [26] | MIC [28] | MIC (Acinetobacter baumannii [31]) | MIC (Acinetobacter baumannii [32]) | MIC (Acinetobacter baumannii [33]) | MIC (Acinetobacter baumannii [34]) | MIC (Acinetobacter baumannii [35])
90 µg/mL: EC50 [1]
2 µg/mL: MIC (Staphylococcus aureus [6]) | MIC (Staphylococcus aureus [7]) | MIC (Staphylococcus aureus [8]) | MIC (Staphylococcus aureus [9]) | MIC (Staphylococcus aureus [10])

CC(C)(C)c1cc(CC2(Cc3cc(C(C)(C)C)cc(C(C)(C)C)c3)C(=O)N(CCCCN)C(=O)N(CCCCN)C2=O)cc(C(C)(C)C)c1.O=C(O)C(F)(F)F.O=C(O)C(F)(F)F
< 5 µg/mL: EC50 [1]
1 µg/mL: MIC (Staphylococcus aureus [5]) | IC50 (MRC5)
0.25 µg/mL: MIC [4]
4 µg/mL: MIC (Pseudomonas aeruginosa [2]) | MIC (Escherichia coli [16]) | MIC (Escherichia coli [17]) | MIC (Escherichia coli [19]) | MIC (Escherichia coli [20]) | MIC (Acinetobacter baumannii [31]) | MIC (Acinetobacter baumannii [32]) | MIC (Acinetobacter baumannii [33]) | MIC (Acinetobacter baumannii [34]) | MIC (Acinetobacter baumannii [35])
16 µg/mL: MIC (Pseudomonas aeruginosa [22]) | MIC [26]
8 µg/mL: MIC (Escherichia coli [18]) | MIC (Pseudomonas aeruginosa [21]) | MIC (Pseudomonas aeruginosa [23]) | MIC (Pseudomonas aeruginosa [24]) | MIC (Pseudomonas aeruginosa [25]) | MIC [27] | MIC [28] | MIC [29] | MIC [30]
2 µg/mL: IC50 (HepG2) | MIC (Escherichia coli [3]) | MIC (Staphylococcus aureus [6]) | MIC (Staphylococcus aureus [7]) | MIC (Staphylococcus aureus [8]) | MIC (Staphylococcus aureus [9]) | MIC (Staphylococcus aureus [10]) | MIC (Enterococcus faecium [11]) | MIC (Enterococcus faecium [12]) | MIC (Enterococcus faecium [13]) | MIC (Enterococcus faecium [14]) | MIC (Enterococcus faecium [15])

Reference: ChEMBL document CHEMBL5055633, “Amphipathic Barbiturates as Mimics of Antimicrobial Peptides and the Marine Natural Products Eusynstyelamides with Activity against Multi-resistant Clinical Isolates” (J Med Chem, 2021)
